In US7932263B2, “Therapeutic treatment” (AstraZeneca AB, priority 2003, dated 2011):

Experiments:
Type in all cases: in vivo, mouse
MMP-9 = MMP-9 expression in aorta by RT-PCR and Western blot; conditions: aorta of apo-E knockout mice, high-cholesterol diet, 1 mg/kg/d of each drug, 12 weeks; vs high-cholesterol diet alone
Method: (§1) Five pairs of C57BL/6J mice and three pairs of homozygous apo-E knockout mice (on C57BL/6J background) were obtained from Jackson Laboratories (Bar Harbor, Me.). They were bred by brother-sister mating and housed in a room lit from 6:00 AM to 6:00 PM and kept at 21° C. The C57BL/6J mice (n=10) were continued on regular diet for the entire study period. The apo-E knockout mice were divided into four groups. Group 1 (n=10) animals were given high-cholesterol diet (1% cholesterol) alone for 12 weeks since the age of 6 weeks; Group 2 (n=10) animals were given high-cholesterol diet with candesartan (1 mg/kg/d) for 12 weeks since the age of 6 weeks; Group 3 (n=10) animals were given high-cholesterol diet with the rosuvastatin (1 mg/kg/d) for 12 weeks since the age of 6 weeks; Group 4 (n=10) animals were given high-cholesterol diet with candesartan (1 mg/kg/d) and rosuvastatin (1 mg/kg/d) for 12 weeks since the age of 6 weeks.
(§2) At the end of 12-week-treatment, 5 mice from each group were euthanized and the aortas (from aorta arch to iliac bifurcation) were separated from surrounding tissues and stored on dry ice. Each aorta was cut into four segments, two of which were used to extract total RNA with the single-step acid-guanidinium thiocyanate-phenol-chloroform method as described earlier (27). […]

TIMP-2 = TIMP-2 protein expression in aorta by Western blot; conditions: aorta of apo-E knockout mice, high-cholesterol diet, 1 mg/kg/d of each drug, 12 weeks; vs high-cholesterol diet alone
Method: (§3) Five pairs of C57BL/6J mice and three pairs of homozygous apo-E knockout mice (on C57BL/6J background) were obtained from Jackson Laboratories (Bar Harbor, Me.). They were bred by brother-sister mating and housed in a room lit from 6:00 AM to 6:00 PM and kept at 21° C. The C57BL/6J mice (n=10) were continued on regular diet for the entire study period. The apo-E knockout mice were divided into four groups. […]
(§4) Each mouse aorta was cut into four segments. […] Membranes were washed and then incubated with 1:5000 dilution specific secondary antibody (Amersham Life Science) for 2 hours at room temperature, and the membranes were washed and detected with the ECL system (Amersham Life Science). The relative intensities of protein bands were analyzed by Scan-gel-it software (Li D Y, Zhang Y C, Sawamura T, Mehta J L. Circ Res. 1999; 84:1043-1049).
(§5) All data represent mean of duplicate samples. […] Statistical significance was determined in multiple comparisons among independent groups of data in which ANOVA and the F test indicated the presence of significant differences. […]

[1] = system: apo-E knockout mice fed high-cholesterol diet; test: Quantitative analysis of atherosclerotic plaques (Sudan IV stained aortas); conditions: 1 mg/kg/d of each drug, 12 weeks, vs high-cholesterol diet alone
Method: Five pairs of C57BL/6J mice and three pairs of homozygous apo-E knockout mice (on C57BL/6J background) were obtained from Jackson Laboratories (Bar Harbor, Me.). They were bred by brother-sister mating and housed in a room lit from 6:00 AM to 6:00 PM and kept at 21° C. The C57BL/6J mice (n=10) were continued on regular diet for the entire study period. The apo-E knockout mice were divided into four groups. Group 1 (n=10) animals were given high-cholesterol diet (1% cholesterol) alone for 12 weeks since the age of 6 weeks; Group 2 (n=10) animals were given high-cholesterol diet with candesartan (1 mg/kg/d) for 12 weeks since the age of 6 weeks; Group 3 (n=10) animals were given high-cholesterol diet with the rosuvastatin (1 mg/kg/d) for 12 weeks since the age of 6 weeks; Group 4 (n=10) animals were given high-cholesterol diet with candesartan (1 mg/kg/d) and rosuvastatin (1 mg/kg/d) for 12 weeks since the age of 6 weeks. At the end of 12-week-treatment, the mice were sacrificed and subject to studies described below. All experimental procedures were performed in accordance with protocols approved by the institutional Animal Care and Usage Committee of University of Arkansas for Medical Sciences. Quantitative Analysis of Atherosclerotic Plaques At the end of 12-week-treatment, 5 mice from each group were euthanized and the aortas were separated from surrounding tissues. After removal of the adventitial fat tissue, the aortas were opened longitudinally from the aorta arch to the iliac bifurcation, and fixed in 10% formalin for 24 hours. Then the aortas were rinsed in 70% alcohol briefly, stained with Sudan IV solution for 15 minutes, differentiated in 80% alcohol for 20 minutes and washed in running water for 1 hour (Russell L. Techniques for studying atherosclerotic lesion, Lab Invest. 1958; 7:42-47). […] The images were analyzed by soft ware (Image Pro Plus, Media Cybernetics). […] Statistical significance was determined in multiple comparisons among independent groups of data in which ANOVA and the F test indicated the presence of significant differences. […]

TIMP-1 = TIMP-1 protein expression in aorta by Western blot; conditions: aorta of apo-E knockout mice, high-cholesterol diet, 1 mg/kg/d of each drug, 12 weeks; vs high-cholesterol diet alone
Method: as §3, §4, §5

MMP-1 = MMP-1 expression in aorta by RT-PCR and Western blot; conditions: aorta of apo-E knockout mice, high-cholesterol diet, 1 mg/kg/d of each drug, 12 weeks; vs high-cholesterol diet alone
Method: as §1, §2

LOX-1 = LOX-1 expression in aorta by RT-PCR and Western blot; conditions: aorta of apo-E knockout mice, high-cholesterol diet, 1 mg/kg/d of each drug, 12 weeks; vs high-cholesterol diet alone
Method: as §1, §2

MMP-2 = MMP-2 expression in aorta by RT-PCR and Western blot; conditions: aorta of apo-E knockout mice, high-cholesterol diet, 1 mg/kg/d of each drug, 12 weeks; vs high-cholesterol diet alone
Method: as §1, §2

CD40 = CD40 expression in aorta by RT-PCR and Western blot; conditions: aorta of apo-E knockout mice, high-cholesterol diet, 1 mg/kg/d of each drug, 12 weeks; vs high-cholesterol diet alone
Method: as §1, §2

Structure (SMILES): CC(C)c1nc(N(C)S(C)(=O)=O)nc(-c2ccc(F)cc2)c1/C=C/[C@@H](O)C[C@@H](O)CC(=O)O [rosuvastatin]
- MMP-9 expression (mRNA and protein) (MMP-9): decreased MMP-1, -2 and -9 expression (mRNA and protein), albeit modestly
- TIMP-2 protein expression (TIMP-2): reduced TIMP-1 and TIMP-2 expression by a small degree
- decrease of atherosclerosis [1]: ~25%
- extent of atherosclerosis (in words) [1]: decreased the extent of atherosclerosis
- TIMP-1 protein expression (TIMP-1): reduced TIMP-1 and TIMP-2 expression by a small degree
- MMP-1 expression (mRNA and protein) (MMP-1): decreased MMP-1, -2 and -9 expression (mRNA and protein), albeit modestly
- LOX-1 expression (mRNA and protein) (LOX-1): decreased the LOX-1 expression (mRNA and protein), albeit modestly
- MMP-2 expression (mRNA and protein) (MMP-2): decreased MMP-1, -2 and -9 expression (mRNA and protein), albeit modestly
- CD40 expression (mRNA and protein) (CD40): slightly decreased CD40 expression

Structure (SMILES): CCOc1nc2cccc(C(=O)O)c2n1Cc1ccc(-c2ccccc2-c2nnn[nH]2)cc1 [candesartan]
- decrease of atherosclerosis [1]: about 35%
